Measured values taken from patent US20080194883A1, “Menthol-Containing Solids Composition” (SYMRISE GMBH & CO. KG, priority 2005, published 2008).

Columns and labels:
[1] = Solution test: time taken for complete dissolving in ethanol/water; format: physicochemical; conditions: 5 g in 95 g ethanol/water (equal weight contents), 20° C., stirred, optical determination
Experimental: The various rates of solution of a solids composition according to the invention according to Example 1a above and forms of I-menthol which are not according to the invention were compared.
For this, in each case 5 g I-menthol or 5 g of the I-menthol-containing solids composition according to the invention according to Example 1a were added to 95 g of a mixture, temperature-controlled at a constant 20° C., of equal weight contents of ethanol and water and the time taken for complete dissolving (optical determination) of the menthol and of the menthol-containing solids composition was determined.
The particular solution test was carried out in a glass beaker having a diameter of 5 cm and a filling height of 7 cm. The contents of the glass beaker were in each case stirred with a 4 cm long magnetic stirring fish at a magnetic stirrer speed of 4 revolutions per second during the solution test. The temperature was monitored with a Pt-100 thermometer, which was immersed 5 cm deep into the liquid, was placed at a distance of 1 cm from the glass beaker wall and simultaneously served as a baffle.
The size of the crystals here corresponded to the typical (commercially available) crystal geometry of natural I-menthol.

[2] = Storage test for caking or formation of lumps (optical and mechanical flowability check); format: physicochemical; conditions: storage times of more than three months
Experimental: In this context, a solid menthol component consisting of bodies in the form of crystals or pressed pieces was employed. The menthol-containing solids composition according to the invention which was investigated remained convenient and reliable to handle and pourable, flowable and meterable over the entire observation period.
This menthol-containing solids composition was packed in a plastic bag in a cube-shaped box and stored at 20° C. (bulk height: 50 cm). Every 14 days, the composition according to the invention was investigated optically and mechanically for its flowability.
I-Menthol (25 kg) in the form of freshly prepared needle-shaped crystals (for the particle distribution, see Example 1) was initially introduced into a mixer and mixed briefly and intensively with various amounts of magnesium oxide (calculated average particle size: 12.8 nm, specific BET surface area: 130 m^2/g, compare Example 1a). The content of magnesium oxide (solid anticaking agent) in the total solids mixture was 0.5 wt. %, 1 wt. %, 2 wt. % or 4 wt. %. The original menthol crystals were comminuted by the mixing operation (compare Example 1a). The menthol-containing solids compositions having various contents of magnesium oxide were each packed in a plastic bag in a cube-shaped box and stored at 20° C. (bulk height: 50 cm). […]

[3] = after 24 hours; cited from earlier work

SMILES	Time taken for complete dissolving [1]	formation of lumps and caking on storage [2]	adhesion and formation of lumps on storage [3]
CC(C)[C@@H]1CC[C@@H](C)C[C@H]1O [Crystals of natural menthol, I-menthol]	255 s		
CC(C)[C@@H]1CC[C@@H](C)C[C@H]1O [Menthol crystals from Example 1, I-menthol]	170 s		
CC(C)[C@@H]1CC[C@@H](C)C[C@H]1O [flaked I-menthol, I-menthol]			adhesion and formation of lumps

Second part, led by results:

Time taken for complete dissolving [1]	formation of lumps and caking on storage [2]	SMILES	adhesion and formation of lumps on storage [3]
280 s		CC(C)[C@@H]1CC[C@@H](C)C[C@H]1O [Menthol crystals in lump form, obtained by storage of the me] [I-menthol]	
504 s	gradually form lumps and cake	CC1CCC(C(C)C)C(O)C1 (stereo not drawn) [Menthol]	
